Assay in all cases: Aerobic agar-dilution AST of facultative anaerobes (MIC, checkerboard FIC)
Common to all, as to format: cell-based

The subject of test [1] is Staphylococcus aureus. On the set-up: MIC (Table 10C, head prints neither MIC nor unit): unit not given beside the values. The settings on record: for MIC (Table 10C, head prints neither MIC nor unit): strain (MR) 920516, aerobic; for MIC: Staphylococcus aureus.
Test [2] deals with Pseudomonas aeruginosa. The conditions noted are these: Pseudomonas aeruginosa, Pseudomonas aeruginosa 945748; read-out: MIC.
The test system of test [3] is Acinetobacter baumannii. The settings on record: Acinetobacter baumannii 919899, read-out: MIC.
Test [4] relates to Enterococcus faecalis. The conditions noted are these: Enterococcus faecalis.

Where only a bound is given, the exact number is not on record here.

Take `CC(C)c1ccc(Cn2ccc3c4c(N)nc(NC5CC5)nc4ccc32)cc1` [Q]: the “MIC (Table 10C, head prints neither MIC nor unit)” value in test [1] stood at 32.

Take `Cc1cc(NS(=O)(=O)c2ccc(N)cc2)no1` [S, sulfamethoxazole]: the “MIC (Table 10C, head prints neither MIC nor unit)” value in test [1] was more than 608.

Take `C[C@@H](O)[C@H]1C(=O)N2C(C(=O)O)=C(S[C@@H]3CN[C@H](C(=O)N(C)C)C3)[C@H](C)[C@H]12` [meropenem]: the values for the MIC in test [2] and in test [3] were 8 µg/mL and more than 64 µg/mL, respectively.

Regarding `CCCCCCCCCCNCCN[C@@]1(C)C[C@H](O[C@H]2[C@H](Oc3c4cc5cc3Oc3ccc(cc3Cl)[C@@H](O)[C@@H](NC(=O)[C@@H](CC(C)C)NC)C(=O)N[C@@H](CC(N)=O)C(=O)N[C@H]5C(=O)N[C@H]3C(=O)N[C@H](C(=O)N[C@H](C(=O)O)c5cc(O)c(CNCP(=O)(O)O)c(O)c5-c5cc3ccc5O)[C@H](O)c3ccc(c(Cl)c3)O4)O[C@H](CO)[C@@H](O)[C@@H]2O)O[C@@H](C)[C@H]1O` [telavancin], the MIC (in general, the least concentration at which growth counts as inhibited) stood at 0.25 µg/mL in test [1] and 0.125 µg/mL in test [1] (ATCC33591).

Turning to `CN[C@H](CC(C)C)C(=O)N[C@H]1C(=O)N[C@@H](CC(N)=O)C(=O)N[C@H]2C(=O)N[C@H]3C(=O)N[C@H](C(=O)N[C@H](C(=O)O)c4cc(O)cc(O)c4-c4cc3ccc4O)[C@H](O)c3ccc(c(Cl)c3)Oc3cc2cc(c3O[C@@H]2O[C@H](CO)[C@@H](O)[C@H](O)[C@H]2O[C@H]2C[C@](C)(N)[C@H](O)[C@H](C)O2)Oc2ccc(cc2Cl)[C@H]1O` [vancomycin], the MIC in test [1] is 1 µg/mL; in test [1] (ATCC33591), 2 µg/mL; in test [4], 1 µg/mL; in test [4] (ATCC51559), more than 32 µg/mL.

For the origin of these results see patent publication US20230398101A1, “Co-agents as Therapy Against Anaerobic Pathogens” (priority 2022, published 2023).
